This note sets out measurements from patent US5736558A, “4-(6-fluoro-1,2-benzisoxazolyl)-1 piperidinyl-propoxy-chromen-4-one-one-derivatives, their preparation and their use in the treatment of psychosis, schizophrenia and anxiety” (Ferrer Internacional, S.A., priority 1995, dated 1998).

pIC50: −log10 of the molar value. Like-named read-outs stand apart in the source and are kept apart here.

A word on the pIC50: it is −log10 of the IC50, conventionally taken in molar units.

The target of one data set is T1, D2 receptors (Rattus norvegicus, UniProt P61169).
T1 construct: membrane corresponding to 20 mg of rat striatum; from tissue; host or cells: rat striatum membrane
T1 sequence (P61169 whole entry): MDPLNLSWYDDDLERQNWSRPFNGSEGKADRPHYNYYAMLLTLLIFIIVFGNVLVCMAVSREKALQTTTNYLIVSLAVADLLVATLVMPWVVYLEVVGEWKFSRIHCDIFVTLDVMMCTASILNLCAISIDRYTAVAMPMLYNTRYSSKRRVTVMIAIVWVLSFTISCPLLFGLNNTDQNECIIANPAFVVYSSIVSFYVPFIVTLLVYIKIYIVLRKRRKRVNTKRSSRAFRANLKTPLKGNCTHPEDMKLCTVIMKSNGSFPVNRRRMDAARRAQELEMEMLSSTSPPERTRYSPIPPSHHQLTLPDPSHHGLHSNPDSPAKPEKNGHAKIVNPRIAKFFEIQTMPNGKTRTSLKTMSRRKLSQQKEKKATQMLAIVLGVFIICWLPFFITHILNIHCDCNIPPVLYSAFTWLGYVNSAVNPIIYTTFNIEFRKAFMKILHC
As to the kind of experiment: Specific binding to D2 receptors ([3H]spiperone, rat striatum membrane).

A further data set has as its target T2, 5HT2 receptors (Rattus norvegicus, UniProt P14842).
T2 construct: membrane corresponding to 1 mg of rat cortex; from tissue; host or cells: rat cortex membrane
As to the kind of experiment: Specific binding to 5HT2 receptors ([3H]ketanserin, rat cortex membrane). Conditions: 0.5 nM [3H]ketanserin, 30 min, 35° C., pH 7.4. How it is done:
(§1) Specific binding to D2, 5HT2 and, 5HT1a receptors was tested as follows:
The amount of receptor-bound radioactivity was retained on the membrane and determined by liquid scintillation counting.
(§2) The biochemical results expressed as IC50 in molar concentrations are presented in Table 1 comparatively to the compound of Patent ES 9400581. A higher affinity of the present compounds to the three receptors is observed.

Another data set has as its target T3, 5HT1a receptors (Rattus norvegicus, UniProt P19327).
T3 construct: membrane corresponding to 1 mg of rat cortex; from tissue; host or cells: rat cortex membrane
T3 sequence (P19327 1-422): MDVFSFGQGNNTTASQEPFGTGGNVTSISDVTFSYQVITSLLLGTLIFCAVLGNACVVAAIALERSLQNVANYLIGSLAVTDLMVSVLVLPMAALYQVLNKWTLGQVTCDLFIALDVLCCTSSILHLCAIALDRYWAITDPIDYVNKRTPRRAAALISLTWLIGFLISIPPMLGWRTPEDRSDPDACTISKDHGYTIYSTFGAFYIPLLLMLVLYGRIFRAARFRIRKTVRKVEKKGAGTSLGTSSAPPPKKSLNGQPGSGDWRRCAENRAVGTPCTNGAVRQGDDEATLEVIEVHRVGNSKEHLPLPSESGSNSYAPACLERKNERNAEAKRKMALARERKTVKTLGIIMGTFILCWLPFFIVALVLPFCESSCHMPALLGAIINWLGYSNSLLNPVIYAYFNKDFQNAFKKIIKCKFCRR
Put plainly: Specific binding to 5HT1a receptors ([3H]5-OH-DPAT, rat cortex membrane). The procedure: as §1
5HT1a receptors: A 1 nM solution of radioactive […], which acts as a specific ligand, was incubated with the membrane corresponding to 1 mg of rat cortex for 20 min at 35° C. buffered at pH 7.4 with Tris.HCl.
Non-specific binding was then determined by addition of a 20 micromolar concentration of unlabelled buspirone. IC50 (inhibitory concentration 50%) was calculated from the inhibition rate of the specific binding obtained by addition of eleven different concentrations of the compounds to be tested. After the incubation was completed, the sample was filtered through a glass fiber filter and then washed three times with Tris.HCl buffer. The amount of receptor-bound radioactivity was retained on the membrane and determined by liquid scintillation counting.
as §2

Data set [1] concerns apomorphine-induced climbing behaviour. Put plainly: Inhibition test of apomorphine-induced climbing behaviour. The format is in vivo, male Swiss mice. As to conditions: Mus musculus, 1 h, read-out: ID50 Climbing.
Method: The compounds were compared in Animal Pharmacology by the inhibition test of apomorphine-induced climbing behaviour
For the practical performance of this experiment, male Swiss mice weighing 22-24 g were used. One week prior to experiment, animals were kept in our facilities at a temperature of 20°-22° C. and 12/12 h light-dark cycle, and had free access to food and water. Two hours prior to experiment, the animals were placed in individual cages without access to food.
Animals were administered orally with test drug or 0.25% agar at time 0. After 60 minutes, apomorphine was subcutaneously injected at a dose of 1 mg/kg, and after further 70 minutes the animal's behaviour was assessed. Two additional assessments were performed at 10-min intervals.
For assessment, each animal was placed on the bottom of a small upright box (11×7.5×4.5 cm). The walls of the box were made of translucent methacrylate except one of the lateral surfaces (7.5 cm wide) which was a 3-mm wire mesh. The position of the animal was scored for 2 minutes according to the following criteria: 0=four paws on the floor; 1=three paws on the floor; 2=two paws on the floor; 3=one paw on the floor; and 4=four paws holding the wire mesh. If an animal keeps several positions within the 2-min observation, the seconds elapsed in each position will be recorded. Finally, mean scoring was calculated.
Another data set in a line: in vivo. As to conditions: rat, po.
The mark [2] stands for this setting: 1 nM [3H]5-OH-DPAT, rat cortex, 20 min, 35° C., pH 7.4, read-out: IC50 5HT1a.
[3] abbreviates: oral, mice, apomorphine 1 mg/kg s.c. after 60 min.

T2 sequence (P14842 whole entry): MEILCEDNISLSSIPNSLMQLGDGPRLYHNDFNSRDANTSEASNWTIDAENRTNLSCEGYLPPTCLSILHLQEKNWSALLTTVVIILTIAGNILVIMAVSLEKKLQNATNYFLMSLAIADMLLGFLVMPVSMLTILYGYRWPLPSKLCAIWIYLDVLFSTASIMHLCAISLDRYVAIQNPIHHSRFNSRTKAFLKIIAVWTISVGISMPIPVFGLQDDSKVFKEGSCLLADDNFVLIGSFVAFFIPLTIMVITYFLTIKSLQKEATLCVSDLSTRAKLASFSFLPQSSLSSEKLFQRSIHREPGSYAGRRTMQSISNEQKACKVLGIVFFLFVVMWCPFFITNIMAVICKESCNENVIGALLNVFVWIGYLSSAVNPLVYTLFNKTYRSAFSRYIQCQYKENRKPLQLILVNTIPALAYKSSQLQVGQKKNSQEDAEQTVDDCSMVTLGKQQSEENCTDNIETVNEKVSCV
Method for D2 receptors: D2 receptors: A 2-nM solution of radioactive spiperone ([^3 H]spiperone), which acts as a specific ligand, was incubated with the membrane corresponding to 20 mg of rat striatum for 20 min at 35° C. buffered at pH 7.4 with Tris.HCl. The non-specific binding was then determined by addition of a micromolar concentration of unlabelled spiperone. […] After the incubation was completed, the sample was filtered through a glass fiber filter and then washed three times with Tris.HCl buffer. The amount of receptor-bound radioactivity was retained on the membrane and determined by liquid scintillation counting.

For the molecule `O=c1c(CO)coc2cc(OCCCN3CCC(c4noc5cc(F)ccc45)CC3)ccc12` [Ex. 3, 7-[3-[4-(6-fluoro-1,2-benzisoxazole-3-yl)piperidin-1-yl]propoxy]-3-(hydroxymethyl)-chromen-4-one], the pIC50 on D2 receptors was 7.94; at 5HT2 receptors, 8.33; at 5HT1a receptors, 6.82. Moreover, the ED50 stood at 0.25 mg/kg in data set [1] (po) and 3.8 mg/kg in the data set “in vivo”. Further, the selectivity ratio in the data set “in vivo” worked out at 15.2.
As for `O=c1ccoc2cc(OCCCN3CCC(c4noc5cc(F)ccc45)CC3)ccc12` [Ex. 1, 7-[3-[4-(6-fluoro-1,2-benzisoxazole-3-yl)piperidin-1-yl]propoxy]chromen-4-one], the negative logarithm of the IC50 (pIC50) on D2 receptors (2 nM [3H]spiperone, rat striatum, 20 min, 35° C., pH 7.4, read-out: IC50 D2) was 7.52; on 5HT2 receptors, 7.95; at 5HT1a receptors (setting [2]), 6.42. In addition, the ED50 in data set [1] (setting [3]) was 2.7 mg/kg; in “in vivo” it was 11.2 mg/kg. Besides, the selectivity ratio in the data set “in vivo” stood at 4.17.
In the case of `Cc1coc2cc(OCCCN3CCC(c4noc5cc(F)ccc45)CC3)ccc2c1=O` [Ex. 2, 7-[3-[4-(6-fluoro-1,2-benzisoxazole-3-yl)piperidin-1-yl]propoxy]-3-methyl-chromen-4-one], the negative-log IC50 (pIC50) at 5HT2 receptors was 7.95; on 5HT1a receptors (setting [2]), 6.60. The ED50 amounted to 0.4 mg/kg in data set [1] (setting [3]) and 2.9 mg/kg in “in vivo”. Moreover, the selectivity ratio in “in vivo” amounted to 7.25.
